In patent US20120269762A1, “CAUSAL THERAPY OF DISEASES OR CONDITIONS ASSOCIATED WITH CNS OR PNS DEMYELINATION” (UNIVERSITY COLLEGE DUBLIN, NATIONAL UNIVERSITY OF IRELAND, …, priority 2009, published 2012):

Legend:
[1] = clinical studies, oral administration; cited from earlier work
[2] = test system: organotypic cultures of rat hippocampus; experiment: LPC-induced demyelination in hippocampal organotypic slice culture (MBP immunofluorescence); format: cell-based, Wistar rats; conditions: 10 μm drug, 24 h post-LPC treatment (250 μg/ml LPC for 18 hours); compared to control
Procedure: Slices were maintained in normal organotypic medium for 10 days, at which point demyelination was induced by exposing the cultures to 250 μg/ml lysophosphatidylcholine (LPC) in the medium for 18 hours. After the LPC exposure, slices were returned to LPC free medium containing either 10 μm nefiracetam, 10 μm piracetam, 10 μm levetiracetam, 10 μm aniracetam, or no drug. […] Protoc. […] Labelled MBP in the cultures was imaged by confocal microscopy, and the degree of myelination was compared to time matched cultures that had not undergone LPC exposure.

[3] = test system: Lewis rats susceptible to develop experimental autoimmune encephalomyelitis (EAE); experiment: EAE animal model of multiple Sclerosis (clinical score); format: in vivo; conditions: versus saline-treated controls, n=5
[4] = test system: C57BL/6 mice on cuprizone diet; experiment: Cuprizone animal model of demyelination (luxol fast blue myelin staining, corpus callosum); format: in vivo; conditions: 30 mg/kg/day i.p. from 5 days before return to normal diet; 1 day time-point after 6 weeks cuprizone (0.2% wt/wt) diet
Procedure: Demyelination was induced by feeding 12-14 week old C57B1/6 mice a diet containing 0.2% cuprizone (bis-cyclohexanone oxaldihydrazone) mixed into food pellets. This diet was maintained ad libitum for 6 weeks before returning animals to normal chow (T=0) in order to study remyelination. Control animals received control chow throughout the study. Commencing from 5 days before the return to control chow (T=−5 days), animals received daily intra-peritoneal injections of 30 mg/kg nefiracetam or vehicle only until the end of the study. At different time points, (T=1 day, T=3 days, T=7 days) animals were sacrificed, brains were snap frozen in Optimal Cutting Temperature (OTC) Compound and stored. Coronal frozen sections, 20 μm thick, were cut using a cryostat at approximately −1.8 mm from bregma. Sections were fixed in 70% ethanol, defatted in 50% chloroform/50% ethanol, rehydrated, and then myelin was stained with luxol fast blue. The degree of myelination in the corpus callosum was assessed based on the intensity of the luxol fast blue staining

Compound | tolerability in humans [1] | MBP expression (percent of field of view positive for MBP) [2] | clinical score (magnitude and timing of clinical symptoms) ([3]; increasing doses (9, 15 and 30 mg/kg) i.p. daily from onset of clinical symptoms) | clinical score (magnitude and timing of clinical symptoms) ([3]; treated from day of inoculation with MBP) | myelin levels (myelin density) in the corpus callosum [4]
Cc1cccc(C)c1NC(=O)CN1CCCC1=O [Nefiracetam, N-(2,6-dimethylphenyl)-2-(2-oxo-1-pyrrolidinyl)acetamide] | well tolerated | restored MBP expression to control levels or above | No significant differences were seen | No significant difference was seen | completely restored myelin levels to normal
COc1ccc(C(=O)N2CCCC2=O)cc1 [aniracetam] | – | restored MBP expression to control levels or above | – | – | –
CC[C@H](C(N)=O)N1CCCC1=O [levetiracetam] | – | restored MBP expression to control levels or above | – | – | –
NC(=O)CN1CCCC1=O [piracetam] | – | restored MBP expression to control levels or above | – | – | –
